Measured values reported in patent publication US9686982B2, “Treatment of potatoes and root vegetables during storage” (AMVAC CHEMICAL CORPORATION, priority 2013, dated 2017).

What was measured:
Potato variety FL 2053 = assay: Sprout control in commercial storage in Canada (Storage Bin 3); type: in vivo; conditions: 115 ppm hot fogging, sprouted diseased tubers, FIG. 4
Protocol: (§1) One group of sprouted, diseased tubers (Storage Bin 3) were treated with 3-decen-2-one (as SmartBlock®) at the rate of 115 ppm using a hot fogging method. Another group of tubers was left untreated as a control.

[1] = test system: dry rot (Fusarium sambucinum); assay: Disease defects in commercial storage in Canada (Storage Bin 3); type: in vivo
Protocol: as §1

tubers (cv Alturas) = assay: Tuber firmness measured with TA-XT-2 texture analyzer; type: in vivo, potato; conditions: 115 ppm; for Tuber firmness (N) Average / Tuber firmness (N) Rep 1 / Tuber firmness (N) Rep 2 / Tuber firmness (N) Rep 3 / Tuber firmness (N) Rep 4: stored at 8° C.; for Tuber firmness (N) Rep 1 / Tuber firmness (N) Rep 2 / Tuber firmness (N) Rep 3 / Tuber firmness (N) Rep 4: mean of 6 tubers
Protocol: The source of tubers for this study was Telford Farms in Paul, Id. The storage unit temperature set point was 48.5° F. (9° C.). The tuber pulp temperatures ranged from 49 to 53.6° F. (9 to 12° C.) depending upon their location in the pile. Untreated tubers (cv Alturas) were selected from storage on Jul. 2, 2013 (prior to SmartBlock® application) to serve as untreated controls. About 200 lbs (91 kg) of these were distributed into 4 coolers with cold packs and transported to the Fed Ex office in Twin Falls, Id. at 1:45 pm where they remained in the air conditioned office until 6:23 pm when they left the facility. Untreated tubers to arrived in Pullman at 11:45 am on July 3.
SmartBlock® was applied at a rate of 4.2 fluid oz ton^−1 (136 mL MT^−1) to tubers remaining in the Telford Farms storage on July 2. Ventilation was suspended for an estimated 12 to 18 hrs. post treatment. A shipment of the treated tubers was packed as described above and delivered to Fed Ex in Twin Falls for shipment on July 3. The shipment arrived in Pullman on July 5 at 11:30 am.
Tubers were sorted into weight categories immediately upon arrival in Pullman, working at room temperature (˜25° C.) and in dim light (0.16-1.34 μE sec^−1 m^−2). Two experimental groups were created from the untreated (control) tubers; those with one or more sprouts ≧0.5 cm and those with no significant (>2 mm) sprouts. Sorting of tubers and their assignment to treatment groups for the various experiments was accomplished within 1.5 hr. and subsequently all tubers were placed in dark, walk-in storage at 8° C. with 85 to 90% RH. Humidity was maintained through the use of a household room humidifier, water on the concrete floor, and damp burlap placed on the empty shelves.
Tubers for firmness measurements were sorted by treatment and blocked for size. Each treatment group (containing at least 24 tubers) was stored in a plastic tote in the walk-in cold room at 8° C. Damp burlap was placed atop the tote so as not to contact the tubers directly. Burlap was re-wetted every two days. At 6, 13, 20, and 27 days after treatment (DAT), six tubers from each rep of each treatment (3-decen-2-one-treated and non-treated not sprouted) were selected and gently rinsed under cold running water to remove surface soil. The tubers were placed in plastic tubs and covered with damp paper towels for transport to the testing facility.
A TA-XT-2 texture analyzer (Stable Microsystems) was used to test tubers for firmness. A section of peel was removed from the midsection on opposite sides of the tuber. An 8-mm probe was lowered into the tuber tissue within this peeled area to a distance of 5 mm at a speed of 1 mm s^−1. Firmness was recorded as the N (m kg s−1) required to achieve the specified penetration. The two readings per tuber were averaged. Analysis of variance was performed on the data set.

[2] = Dec. 10, 2013, final grading after 115 ppm thermal fog

SMILES: CCCCCCC=CC(C)=O [3-decen-2-one]
- sprouting compared to untreated controls (Potato variety FL 2053): reduced/prevented sprouting
- symptoms of dry rot compared to untreated controls ([1]; 115 ppm hot fogging, sprouted diseased tubers, FIG. 4): decreased or eliminated symptoms of dry rot
- % Total Defects ([1]; Dec. 10, 2013, bin unloaded after 115 ppm thermal fog on Nov. 13, 2013 (14.30 before treatment), variety FL 2053): 4.23%
- moistness of tubers [1, 2]: tubers were not moist and mold
- mold development [1, 2]: development had been arrested.
- Change (of % total defects) ([1]; Dec. 10, 2013 versus Nov. 13, 2013 before treatment, 115 ppm thermal fog): -70.4
- % Increase (tuber firmness vs untreated) (tubers (cv Alturas); 6 days after treatment): 4.09%
- Tuber firmness (N) Average (tubers (cv Alturas); 6 days after treatment): 75.38 N
- Tuber firmness (N) Rep 1 (tubers (cv Alturas); 6 days after treatment): 67.84 N
- Tuber firmness (N) Rep 2 (tubers (cv Alturas); 6 days after treatment): 79.18 N
- Tuber firmness (N) Rep 3 (tubers (cv Alturas); 6 days after treatment): 75.64 N
- Tuber firmness (N) Rep 4 (tubers (cv Alturas); 6 days after treatment): 78.85 N
- % Increase (tuber firmness vs untreated) (tubers (cv Alturas); 13 days after treatment): 2.80%
- Tuber firmness (N) Average (tubers (cv Alturas); 13 days after treatment): 73.45 N
- Tuber firmness (N) Rep 1 (tubers (cv Alturas); 13 days after treatment): 73.22 N
- Tuber firmness (N) Rep 2 (tubers (cv Alturas); 13 days after treatment): 67.34 N
- Tuber firmness (N) Rep 3 (tubers (cv Alturas); 13 days after treatment): 73.98 N
- Tuber firmness (N) Rep 4 (tubers (cv Alturas); 13 days after treatment): 79.26 N
- % Increase (tuber firmness vs untreated) (tubers (cv Alturas); 20 days after treatment): 3.28%
- Tuber firmness (N) Average (tubers (cv Alturas); 20 days after treatment): 74.90 N
- Tuber firmness (N) Rep 1 (tubers (cv Alturas); 20 days after treatment): 74.51 N
- Tuber firmness (N) Rep 2 (tubers (cv Alturas); 20 days after treatment): 74.63 N
- Tuber firmness (N) Rep 3 (tubers (cv Alturas); 20 days after treatment): 72.81 N
- Tuber firmness (N) Rep 4 (tubers (cv Alturas); 20 days after treatment): 77.64 N
